In patent publication US8563714B2, “Bridged spiro [2.4] heptane derivatives as ALX receptor and/or FPRL2 agonists” (Actelion Pharmaceuticals Ltd., priority 2009, dated 2013):

Tests used:
human FPRL2 = biological target: T1, human FPRL2 (Homo sapiens, UniProt P25089); assay: Intracellular calcium measurements (FLIPR), agonistic activity in HEK293-hFPRL2-Gα16 cells; type: cell-based; conditions: Fluo-4 calcium FLIPR, normalized to GLY14-Humanin 100 nM
T1 construct: expressed in transfected cells; host or cells: HEK293 (HEK293-hFPRL2-Gα16)
T1 sequence (P25089 1-353): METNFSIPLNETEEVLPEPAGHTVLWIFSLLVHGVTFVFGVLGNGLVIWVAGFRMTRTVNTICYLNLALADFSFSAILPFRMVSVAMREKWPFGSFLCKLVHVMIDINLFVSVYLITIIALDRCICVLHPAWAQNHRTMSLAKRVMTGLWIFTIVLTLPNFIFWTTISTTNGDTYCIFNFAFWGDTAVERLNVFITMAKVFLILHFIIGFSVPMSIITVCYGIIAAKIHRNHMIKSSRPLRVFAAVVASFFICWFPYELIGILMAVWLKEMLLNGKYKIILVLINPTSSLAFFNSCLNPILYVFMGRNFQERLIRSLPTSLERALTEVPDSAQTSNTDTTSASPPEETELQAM
Method in brief: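 Peak values after baseline subtraction are expressed relative to 100 nM Gly14-Humanin; compounds diluted in assay buffer from 10 mM DMSO stocks.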

human ALX receptor = biological target: T2, human ALX receptor (Homo sapiens, UniProt P25090); assay: Intracellular calcium measurements (FLIPR), agonistic activity in HEK293-hALXR-Gα16 cells; type: cell-based; conditions: Fluo-4 calcium FLIPR, normalized to WKYMVm 10 nM
T2 construct: expressed in transfected cells; host or cells: HEK293 (HEK293-hALXR-Gα16)
T2 sequence (P25090 1-351): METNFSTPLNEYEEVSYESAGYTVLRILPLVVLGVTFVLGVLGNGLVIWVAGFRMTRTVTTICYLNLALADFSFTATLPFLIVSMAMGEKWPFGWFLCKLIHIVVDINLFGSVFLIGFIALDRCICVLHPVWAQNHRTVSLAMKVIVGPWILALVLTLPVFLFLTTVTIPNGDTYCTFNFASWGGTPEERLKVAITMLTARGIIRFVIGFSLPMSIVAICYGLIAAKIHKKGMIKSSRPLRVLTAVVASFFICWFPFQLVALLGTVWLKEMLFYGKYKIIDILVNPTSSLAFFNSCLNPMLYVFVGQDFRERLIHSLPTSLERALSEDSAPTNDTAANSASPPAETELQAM
Method in brief: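 HEK293 cells expressing hALXR and Gα16 were loaded with 1 μM Fluo-4 AM and 20 mM HEPES for 60 min at 37°C, then exposed to serially diluted compound. FLIPR fluorescence was read at ex 488/em 540 nm. Baseline-subtracted peak responses were normalized to 10 nM WKYMVm.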

SMILES: CC(=O)c1nc(CNC(=O)[C@H]2[C@H](C(=O)NCCCCN3CCCC3)[C@H]3C=C[C@@H]2C32CC2)cs1 (racemic) [Example 348, (5R*)—N^5-[(2-Acetyl-thiazol-4-yl)methyl]-(6R*)—N^6-(4-pyrrolidino-butyl)-(4S*,7R*)-[4,7-ethenylene-spiro[2.4]heptane]-5,6-dicarboxamide]
- EC50 (human FPRL2): 219 nM
- EC50 (human ALX receptor): 3230 nM

SMILES: O=C(NCCCCN1CCCC1)[C@H]1[C@H](C(=O)NCc2cccc(Cl)c2F)[C@@H]2C=C[C@H]1C21CC1 (racemic) [Example 349, (5R*)—N^5-(3-Chloro-2-fluorophenyl-methyl)-(6R*)—N^6-(4-pyrrolidino-butyl)-(4S*,7R*)-[4,7-ethenylene-spiro[2.4]heptane]-5,6-dicarboxamide]
- EC50 (human FPRL2): 200 nM
- EC50 (human ALX receptor): 4720 nM

SMILES: Cc1coc(NC(=O)[C@H]2[C@H](C(=O)NCCCCN3CCCC3)[C@H]3C=C[C@@H]2C32CC2)n1 (racemic) [Example 350, (5R*)—N^5-(4-Methyl-oxazol-2-yl)-(6R*)—N^6-(4-pyrrolidino-butyl)-(4S*,7R*)-[4,7-ethenylene-spiro[2.4]heptane]-5,6-dicarboxamide]
- EC50 (human FPRL2): 444 nM
- EC50 (human ALX receptor): 5730 nM

SMILES: CC(=O)c1cnc(CNC(=O)[C@H]2[C@H](C(=O)NCCCCN3CCCC3)[C@H]3C=C[C@@H]2C32CC2)s1 (racemic) [Example 351, (5R*)—N^5-[(5-Acetyl-thiazol-2-yl)methyl]-(6R*)—N^6-(4-pyrrolidino-butyl)-(4S*,7R*)-[4,7-ethenylene-spiro[2.4]heptane]-5,6-dicarboxamide]
- EC50 (human FPRL2): 94 nM
- EC50 (human ALX receptor): 6330 nM

SMILES: CC(=O)c1cccc(NC(=O)[C@H]2[C@H](C(=O)NCCCCN3CCCC3)[C@H]3C=C[C@@H]2C32CC2)c1 (racemic) [Example 352, (5R*)—N^5-(3-Acetylphenyl)-(6R*)—N^6-(4-pyrrolidino-butyl)-(4S*,7R*)-[4,7-ethenylene-spiro[2.4]heptane]-5,6-dicarboxamide]
- EC50 (human FPRL2): 958 nM
- EC50 (human ALX receptor): 6700 nM

SMILES: O=C(NCCCCN1CCCC1)[C@H]1[C@H](C(=O)NCc2ccc(F)cc2Br)[C@@H]2C=C[C@H]1C21CC1 (racemic) [Example 353, (5R*)—N^5-(2-Bromo-4-fluorophenyl-methyl)-(6R*)—N^6-(4-pyrrolidino-butyl)-(4S*,7R*)-[4,7-ethenylene-spiro[2.4]heptane]-5,6-dicarboxamide]
- EC50 (human FPRL2): 256 nM
- EC50 (human ALX receptor): 6900 nM

SMILES: O=C(NCCCCN1CCCC1)[C@H]1[C@H](C(=O)NCc2ccc(F)c(Br)c2)[C@@H]2C=C[C@H]1C21CC1 (racemic) [Example 354, (5R*)—N^5-(3-Bromo-4-fluorophenyl-methyl)-(6R*)—N^6-(4-pyrrolidino-butyl)-(4S*,7R*)-[4,7-ethenylene-spiro[2.4]heptane]-5,6-dicarboxamide]
- EC50 (human FPRL2): 223 nM
- EC50 (human ALX receptor): 7410 nM

SMILES: O=C(NCCCCN1CCCC1)[C@H]1[C@H](C(=O)NCc2cc(F)cc(F)c2F)[C@@H]2C=C[C@H]1C21CC1 (racemic) [Example 355, (5R*)—N^5-(2,3,5-Trifluorophenyl-methyl)-(6R*)—N^6-(4-pyrrolidino-butyl)-(4S*,7R*)-[4,7-ethenylene-spiro[2.4]heptane]-5,6-dicarboxamide]
- EC50 (human FPRL2): 477 nM
- EC50 (human ALX receptor): 7500 nM

SMILES: Cc1nonc1CNC(=O)[C@H]1[C@H](C(=O)NCCCCN2CCCC2)[C@H]2C=C[C@@H]1C21CC1 (racemic) [Example 356, (5R*)—N^5-[(4-Methyl-1,2,5-oxadiazol-3-yl)methyl]-(6R*)—N^6-(4-pyrrolidino-butyl)-(4S*,7R*)-[4,7-ethenylene-spiro[2.4]heptane]-5,6-dicarboxamide]
- EC50 (human FPRL2): 948 nM
- EC50 (human ALX receptor): 7710 nM

SMILES: O=C(NCCCCN1CCCC1)[C@H]1[C@H](C(=O)NCc2cccc(C(F)(F)F)c2F)[C@@H]2C=C[C@H]1C21CC1 (racemic) [Example 357, (5R*)—N^5-(2-Fluoro-3-trifluoromethylphenyl-methyl)-(6R*)—N^6-(4-pyrrolidino-butyl)-(4S*,7R*)-[4,7-ethenylene-spiro[2.4]heptane]-5,6-dicarboxamide]
- EC50 (human FPRL2): 290 nM
- EC50 (human ALX receptor): 7910 nM

SMILES: Cc1cc(C)cc(CNC(=O)[C@H]2[C@H](C(=O)NCCCCN3CCCC3)[C@H]3C=C[C@@H]2C32CC2)c1 (racemic) [Example 358, (5R*)—N^5-(3,5-Dimethylphenyl-methyl)-(6R*)—N^6-(4-pyrrolidino-butyl)-(4S*,7R*)-[4,7-ethenylene-spiro[2.4]heptane]-5,6-dicarboxamide]
- EC50 (human FPRL2): 176 nM
- EC50 (human ALX receptor): 7980 nM

SMILES: CC(=O)c1cccc(CNC(=O)[C@H]2[C@H](C(=O)NCCCCN3CCCC3)[C@H]3C=C[C@@H]2C32CC2)c1 (racemic) [Example 359, (5R*)—N^5-(3-Acetylphenyl-methyl)-(6R*)—N^6-(4-pyrrolidino-butyl)-(4S*,7R*)-[4,7-ethenylene-spiro[2.4]heptane]-5,6-dicarboxamide]
- EC50 (human FPRL2): 359 nM
- EC50 (human ALX receptor): 8350 nM

SMILES: O=C(NCCCCN1CCCC1)[C@H]1[C@H](C(=O)NCc2cccc(OC(F)F)c2)[C@@H]2C=C[C@H]1C21CC1 (racemic) [Example 360, (5R*)—N^5-(3-Difluoromethoxyphenyl-methyl)-(6R*)—N^6-(4-pyrrolidino-butyl)-(4S*,7R*)-[4,7-ethenylene-spiro[2.4]heptane]-5,6-dicarboxamide]
- EC50 (human FPRL2): 530 nM
- EC50 (human ALX receptor): 8700 nM

SMILES: COc1cc(CNC(=O)[C@H]2[C@H](C(=O)NCCCCN3CCCC3)[C@H]3C=C[C@@H]2C32CC2)ccn1 (racemic) [Example 361, (5R*)—N^5-[(2-Methoxypyridin-4-yl)methyl]-(6R*)—N^6-(4-pyrrolidino-butyl)-(4S*,7R*)-[4,7-ethenylene-spiro[2.4]heptane]-5,6-dicarboxamide]
- EC50 (human FPRL2): 330 nM
- EC50 (human ALX receptor): 8870 nM

SMILES: O=C(NCCCCN1CCCC1)[C@H]1[C@H](C(=O)NCc2cc(F)cc(C(F)(F)F)c2)[C@@H]2C=C[C@H]1C21CC1 (racemic) [Example 362, (5R*)—N^5-(3-Fluoro-5-trifluoromethylphenyl-methyl)-(6R*)—N^6-(4-pyrrolidino-butyl)-(4S*,7R*)-[4,7-ethenylene-spiro[2.4]heptane]-5,6-dicarboxamide]
- EC50 (human FPRL2): 306 nM
- EC50 (human ALX receptor): 9090 nM

SMILES: CC(=O)c1ccc(CNC(=O)[C@H]2[C@H](C(=O)NCCCCN3CCCC3)[C@H]3C=C[C@@H]2C32CC2)cc1 (racemic) [Example 363, (5R*)—N^5-(4-Acetylphenyl-methyl)-(6R*)—N^6-(4-pyrrolidino-butyl)-(4S*,7R*)-[4,7-ethenylene-spiro[2.4]heptane]-5,6-dicarboxamide]
- EC50 (human FPRL2): 570 nM
- EC50 (human ALX receptor): 9740 nM

SMILES: O=C(NCCCCN1CCCC1)[C@H]1[C@H](C(=O)NCc2cc(C(F)(F)F)ccc2Cl)[C@@H]2C=C[C@H]1C21CC1 (racemic) [Example 364, (5R*)—N^5-(2-Chloro-5-trifluoromethylphenyl-methyl)-(6R*)—N^6-(4-pyrrolidino-butyl)-(4S*,7R*)-[4,7-ethenylene-spiro[2.4]heptane]-5,6-dicarboxamide]
- EC50 (human FPRL2): 372 nM
- EC50 (human ALX receptor): 9970 nM

SMILES: O=C(NCCCCN1CCCC1)[C@H]1[C@H](C(=O)NCc2cc(C(F)(F)F)ccc2F)[C@@H]2C=C[C@H]1C21CC1 (racemic) [Example 365, (5R*)—N^5-(2-Fluoro-5-trifluoromethylphenyl-methyl)-(6R*)—N^6-(4-pyrrolidino-butyl)-(4S*,7R*)-[4,7-ethenylene-spiro[2.4]heptane]-5,6-dicarboxamide]
- EC50 (human FPRL2): 350 nM
- EC50 (human ALX receptor): 9970 nM

SMILES: O=C(NCCCCN1CCCC1)[C@H]1[C@H](C(=O)NCc2ccc(F)c(C(F)(F)F)c2)[C@@H]2C=C[C@H]1C21CC1 (racemic) [Example 366, (5R*)—N^5-(4-Fluoro-3-trifluoromethylphenyl-methyl)-(6R*)—N^6-(4-pyrrolidino-butyl)-(4S*,7R*)-[4,7-ethenylene-spiro[2.4]heptane]-5,6-dicarboxamide]
- EC50 (human FPRL2): 366 nM
- EC50 (human ALX receptor): 10000 nM

SMILES: O=C(NCCCCN1CCCC1)[C@H]1[C@H](C(=O)NCc2cc(Cl)nc(Cl)c2)[C@@H]2C=C[C@H]1C21CC1 (racemic) [Example 367, (5R*)—N^5-[(2,6-Dichloropyridin-4-yl)methyl]-(6R*)—N^6-(4-pyrrolidino-butyl)-(4S*,7R*)-[4,7-ethenylene-spiro[2.4]heptane]-5,6-dicarboxamide]
- EC50 (human FPRL2): 644 nM
- EC50 (human ALX receptor): 10600 nM
